One may read the Papp as a coefficient for how fast a substance crosses the barrier.

Among the data in paper PMC11876671, “Investigating blood–brain barrier penetration and neurotoxicity of natural products for central nervous system drug development” (Scientific Reports, 2025) are Papp values, retold here.

Counter-ions that a name gives are not always drawn.

The nature of the first series: in vitro. The note with it: PAMPA, PAMPA-BBB Pe(10^-6 cm/sec). For orientation: The PAMPA barrier holds no transporters, so it reflects passive diffusion.
Compound `C/C(=C\C(=O)OCCCCCCCCC(=O)O)C[C@@H]1OC[C@H](C[C@@H]2O[C@H]2[C@@H](C)[C@H](C)O)[C@@H](O)[C@H]1O` [MUPIROCIN] gave a Papp of less than 1 ×10⁻⁶ cm/s.
For the compound `O=C(O)c1cccnc1` [NICOTINIC ACID], the Papp was less than 1 ×10⁻⁶ cm/s.

Still in this series, the particulars now being: PAMPA, PAMPA-BBB Pe(10^-6 cm/sec), Table S3: compounds exhibiting low PAMPA-BBB permeability.
For `O=c1c(O)c(-c2ccc(O)cc2O)oc2cc(O)cc(O)c12` [MORIN], the Papp came to 1.5 ×10⁻⁶ cm/s.
Take `O=c1c(O)c(-c2cc(O)c(O)c(O)c2)oc2cc(O)cc(O)c12` [MYRICETIN]: the Papp was less than 1 ×10⁻⁶ cm/s.
Turning to `CNc1ccc(C(=O)CC(O)CCC(C)C2OC(=O)CC(O)CC(=O)CC(O)CC(O)CC(O)CC(O)CC3(O)CC(O)C(C(=O)OC)C(CC(O[C@@H]4O[C@H](C)[C@@H](O)[C@H](N)[C@@H]4O)/C=C/C=C/C=C/C=C/C=C/C=C/C=C/C2C)O3)cc1` (stereo partly shown) [M[…]], the Papp is less than 1 ×10⁻⁶ cm/s.
Regarding `COc1cc2c(c(OC)c1OC)-c1ccc(O)c(=O)cc1[C@@H](N)CC2` [N-DEACETYLCOLCHICEINE], the Papp worked out at 8.2 ×10⁻⁶ cm/s.
In turn, `COc1cc2c(c(OC)c1OC)-c1ccc(OC)c(=O)cc1[C@@H](NC=O)CC2` [N-FORMYL-N-DEACETYLCOLCHICINE] displayed a Papp of 6.6 ×10⁻⁶ cm/s.
Regarding `CNc1ncnc2c1ncn2C1OC(CO)C(O)C1O` (stereo not shown) [N-METHYLADENOSINE], the Papp was less than 1 ×10⁻⁶ cm/s.
Take `CNCCc1c[nH]c2ccc(O)cc12` [N-METHYLSEROTONIN]: the Papp came to 7.1 ×10⁻⁶ cm/s.
The compound `C[C@@H]1C/C=C/C=C/C=C/C=C/[C@H](O[C@@H]2O[C@H](C)[C@@H](O)[C@H](N)[C@@H]2O)C[C@@H]2O[C@](O)(C[C@@H](O)C[C@H]3O[C@@H]3/C=C/C(=O)O1)C[C@H](O)[C@H]2C(=O)O` [NATAMYCIN] had a Papp of 5.7 ×10⁻⁶ cm/s.
On the same count and under the same terms, the value for `COc1ccc([C@@H]2CC(=O)c3c(O)cc(O[C@@H]4O[C@H](CO)[C@@H](O)[C@H](O)[C@H]4O[C@@H]4O[C@@H](C)[C@H](O)[C@@H](O)[C@H]4O)cc3O2)cc1O` [NEOHESPERIDIN] was less than 1 ×10⁻⁶ cm/s; that for `C[N+]1([O-])CCC[C@@H]1c1cccnc1` (stereo partly shown) [NICOTINE N'-OXIDE] was 2.8 ×10⁻⁶ cm/s.
In turn, `CC(=O)NCCc1c[nH]c2ccc(O)cc12` [NORMELATONIN] gave a Papp of less than 1 ×10⁻⁶ cm/s.
Take `COc1cc(C(O)CN)ccc1O` (stereo not shown) [NORMETADRENALINE HYDROCHLORIDE]: the Papp was less than 1 ×10⁻⁶ cm/s.
In turn, `c1cncc([C@@H]2CCCN2)c1` [NORNICOTINE] gave a Papp of 8.4 ×10⁻⁶ cm/s.
As to `Cc1cc(O)c(C=O)c2c1C(=O)Oc1c(C)c(O)c3c(c1O2)C(O)OC3=O` (stereo not shown) [Norstictic acid], the Papp came out at 2 ×10⁻⁶ cm/s.
For the compound `CC(=O)Nc1ccccc1O` [O-ACETAMIDOPHENOL], the Papp was less than 1 ×10⁻⁶ cm/s.
The compound `COc1ccc(-c2coc3cc(O[C@@H]4O[C@H](CO)[C@@H](O)[C@H](O)[C@H]4O)ccc3c2=O)cc1` [ONONOSIDE] gave an apparent permeability coefficient (Papp) of less than 1 ×10⁻⁶ cm/s.
Compound `Cn1c(=O)[nH]c2ncn(C)c2c1=O` [PARAXANTHINE] gave a Papp of less than 1 ×10⁻⁶ cm/s.

Still in this series, the particulars now being: PAMPA, PAMPA-BBB Pe, Table S2: compounds exhibiting moderate to high PAMPA-BBB permeability.
`COC(=O)C1=CO[C@@H](C)[C@@H]2CN3CC[C@@]4(C(=O)Nc5ccccc54)[C@@H]3CC12` (stereo partly shown) [MITRAPHYLLINE] returned a Papp of 117 ×10⁻⁶ cm/s.
Compound `COC(=O)c1c(C)cc(O)cc1O` [Methyl 2,4-dihydroxy-6-methylbenzoate] gave a Papp of 63 ×10⁻⁶ cm/s.
On the same count and under the same terms, as for `CC(C)=CCCC(C)=CC(=O)O` [NEROLIC ACID], the figure is 17 ×10⁻⁶ cm/s; as for `Cn1cccc1-c1cccnc1` [NICOTYRINE], 102 ×10⁻⁶ cm/s; as for `CCCCCCCCC(=O)NCc1ccc(O)c(OC)c1` [NONIVAMIDE], 125 ×10⁻⁶ cm/s.
`CC1=C(O)C(=O)CO1` [NORFURONOL] had a Papp of 47 ×10⁻⁶ cm/s.
Compound `COc1ccc(-c2cnc(-c3cccnc3)o2)cc1` [O-[…]] returned a Papp of 262 ×10⁻⁶ cm/s.
With `Cn1cnc2c(NCc3ccccc3)nc(NCCO)nc21` [OLOMOUCINE], the Papp came to 10 ×10⁻⁶ cm/s.
The compound `CCOc1ccc(O)cc1` [P-HYDROXYPHENETOLE] had a Papp of 35 ×10⁻⁶ cm/s.
As to `COc1ccc(COC(C)=O)cc1` [P-METHOXYBENZYL ACETATE], the apparent permeability (Papp) was determined as 172 ×10⁻⁶ cm/s.
Turning to `COc1ccc(C(C)=O)c(O)c1` [PAEONOL], the Papp came out at 146 ×10⁻⁶ cm/s.
Compound `COc1ccc(Cc2nccc3cc(OC)c(OC)cc23)cc1OC` [PAPAVERINE HYDROCHLORIDE] had an apparent permeability coefficient (Papp) of 165 ×10⁻⁶ cm/s.
